Read-outs that look alike come from different tables or passages of the source. A value given as a limit tells only on which side of the number the result lay.

The subject of test [1] is HCV replicon (strain 1b) in HUH-7 cells. Nature of the test: HCV replicon FRET assay. In kind it is cell-based, Hepatitis C virus. A general note: In antiviral work, replicon cells carry a viral genome segment that copies itself.
Test [2] concerns the target T1, HCV NS3/4A protease complex, BMS strain (UniProt P27958, species not given/STRAIN_BMS).
T1 construct: other: NS3/4A BMS strain; activity range class; numeric values, unit not given; said of H77 and J4L6S; fused on or other part: A three-lysine solubilising tail at the C-terminus of NS4A; A His tag is implied by the pET21b vector and Ni-NTA purification; Both are printed for the H77 and J4L6S constructs and apply to BMS by inference
Nature of the test: FRET peptide assay to monitor HCV NS3/4A proteolytic activity (BMS strain). In kind it is biochemical, Hepatitis C virus (genotype 1a). As to conditions: read-out: HCV Protease (IC50), NS3/4A BMS strain. In a few lines:
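Purified recombinant NS3/4A complex from genotype 1a BMS strain, 2-3 nM final, with RET S1 EDANS/DABCYL depsipeptide substrate at 2 μM final in HEPES pH 7.5, NaCl, Triton, glycerol, βME. Cleavage followed in real time by fluorescence. For high-potency compounds: 50 μg/ml BSA added, protease lowered to 300 pM.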

The mark [3] stands for this setting: Hepatitis C virus, Huh-7, read-out: HCV Pro Replicon (EC50), HCV replicon cell assay, activity range class.
Setting [4] is: Hepatitis C virus, Huh-7, read-out: HCV Pro Replicon (EC50), HCV replicon cell assay, numeric values, unit inferred.
[5] abbreviates: read-out: HCV Pro Replicon (EC50), HCV replicon cell assay, activity range class.

T1 sequence (P27958 1027-1657, change not shown, one chain of several): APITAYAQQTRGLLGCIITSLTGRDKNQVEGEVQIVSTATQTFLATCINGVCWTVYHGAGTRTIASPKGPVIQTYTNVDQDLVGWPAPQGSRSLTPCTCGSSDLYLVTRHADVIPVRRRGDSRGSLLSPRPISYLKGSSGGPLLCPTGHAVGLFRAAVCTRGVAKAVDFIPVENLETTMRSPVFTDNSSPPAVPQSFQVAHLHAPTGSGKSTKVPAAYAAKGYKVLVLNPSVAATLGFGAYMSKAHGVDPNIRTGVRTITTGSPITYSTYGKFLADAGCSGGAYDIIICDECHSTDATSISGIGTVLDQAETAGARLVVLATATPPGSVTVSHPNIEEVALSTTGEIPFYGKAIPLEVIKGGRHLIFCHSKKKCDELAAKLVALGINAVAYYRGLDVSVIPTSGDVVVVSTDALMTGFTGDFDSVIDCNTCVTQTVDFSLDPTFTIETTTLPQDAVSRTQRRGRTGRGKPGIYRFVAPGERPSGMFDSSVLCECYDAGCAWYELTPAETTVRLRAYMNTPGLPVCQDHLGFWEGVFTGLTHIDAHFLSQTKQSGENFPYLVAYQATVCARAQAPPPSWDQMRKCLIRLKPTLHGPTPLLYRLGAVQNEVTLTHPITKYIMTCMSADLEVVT

Consider `C=C[C@@H]1C[C@]1(NC(=O)[C@@H]1C[C@@H](Oc2nc3c(c4cc(OC)ccc24)OCCN3C)CN1C(=O)[C@H](Nc1ccc(F)c(F)c1)C(C)(C)C)C(=O)NS(=O)(=O)C1CC1` [235 second isomer, N-(3,4-difluorophenyl)-3-methyl-D-valyl-(4R)—N-((1R,2S)-1-((cyclopropylsulfonyl)carbamoyl)-2-vinylcyclopropyl)-4-((9-methoxy-4-methyl-3,4-dihydro-2H-[1,4]oxazino[3,2-c]isoquinolin-6-yl)oxy)-L-prolinamide], for which, in test [1] (setting [3]), the EC50 fell in the range of 3 to 100 nM. The half-maximal inhibitory concentration (IC50) in test [2] (activity range class) lay within 0.6 to 20 nM.
With `C=C[C@@H]1C[C@]1(NC(=O)[C@@H]1C[C@@H](Oc2nccc3cc(OC)ccc23)CN1C(=O)[C@H](Nc1cc(C)cc(C)n1)C(C)(C)C)C(=O)NS(=O)(=O)C1CC1` [14 second isomer, N-(4,6-dimethyl-2-pyridinyl)-3-methyl-D-valyl-(4R)—N-((1R,2S)-1-((cyclopropylsulfonyl)carbamoyl)-2-vinylcyclopropyl)-4-((6-methoxy-1-isoquinolinyl)oxy)-L-prolinamide], the EC50 in test [1] (setting [3]) was in the range of 100 to 1000 nM. The IC50 in test [2] (activity range class) was more than 200 nM.
As for `C=C[C@@H]1C[C@]1(NC(=O)[C@@H]1C[C@@H](Oc2nccc3cc(OC)ccc23)CN1C(=O)[C@@H](Nc1ccccn1)C(C)(C)C)C(=O)NS(=O)(=O)C1CC1` [12 first isomer, 3-methyl-N-2-pyridinyl-L-valyl-(4R)—N-((1R,2S)-1-((cyclopropylsulfonyl)carbamoyl)-2-vinylcyclopropyl)-4-((6-methoxy-1-isoquinolinyl)oxy)-L-prolinamide], the EC50 in test [1] (setting [3]) is 3 to 100 nM. The half-maximal inhibitory concentration (IC50) in test [2] (activity range class) is 0.6 to 20 nM.
For `C=C[C@@H]1C[C@]1(NC(=O)[C@@H]1C[C@@H](Oc2nccc3cc(OC)ccc23)CN1C(=O)C(Nc1cc(OC)ccn1)C(C)C)C(=O)NS(=O)(=O)C1CC1` (single isomer, unassigned) [Compound 8] the same measures were 3 to 100 nM and 20 to 200 nM.
With `C=C[C@@H]1C[C@]1(NC(=O)[C@@H]1C[C@@H](Oc2ncc(OC)c3ccc(Cl)cc23)CN1C(=O)[C@H](Nc1cccc(C(=O)OC(C)C)c1)C(C)(C)C)C(=O)NS(=O)(=O)C1CC1` [231 second isomer, N-(3-(isopropoxycarbonyl)phenyl)-3-methyl-D-valyl-(4R)-4-((7-chloro-4-methoxy-1-isoquinolinyl)oxy)-N-((1R,2S)-1-((cyclopropylsulfonyl)carbamoyl)-2-vinylcyclopropyl)-L-prolinamide], the concentration giving a half-maximal response (EC50) in test [1] (setting [3]) was more than 1000 nM. In addition, the concentration for half-maximal inhibition (IC50) in test [2] (activity range class) is more than 200 nM.
As for `C=C[C@@H]1C[C@]1(NC(=O)[C@@H]1C[C@@H](Oc2nccc3cc(OC)ccc23)CN1C(=O)[C@@H](NC1=NCCCS1)C(C)(C)C)C(=O)NS(=O)(=O)C1CC1` [Compound 36, N-(5,6-dihydro-4H-1,3-thiazin-2-yl)-3-methyl-L-valyl-(4R)—N-((1R,2S)-1-((cyclopropylsulfonyl)carbamoyl)-2-vinylcyclopropyl)-4-((6-methoxy-1-isoquinolinyl)oxy)-L-prolinamide], the 50% effective concentration (EC50) in test [1] (setting [4]) was 1420 nM. For the same compound, in test [2] (numeric values, unit inferred), the half-inhibitory concentration (IC50) came out at 73 nM.
Regarding `C=C[C@@H]1C[C@]1(NC(=O)[C@@H]1C[C@@H](Oc2nc(N(C)C)cc3cc(OC)ccc23)CN1C(=O)C(Nc1ccccc1)C(C)(C)C)C(=O)NS(=O)(=O)C1CC1` (single isomer, unassigned) [19 first isomer], in test [1] (setting [3]), the 50% effective concentration (EC50) was 3 to 100 nM. In addition, the IC50 in test [2] (activity range class) is 0.6 to 20 nM.
With `C=C[C@@H]1C[C@]1(NC(=O)[C@@H]1C[C@@H](Oc2ncc(OC)c3ccc(Cl)cc23)CN1C(=O)[C@@H](Nc1cccc(C(=O)OC)c1)C(C)(C)C)C(=O)NS(=O)(=O)C1CC1` [232 first isomer, N-(3-(methoxycarbonyl)phenyl)-3-methyl-L-valyl-(4R)-4-((7-chloro-4-methoxy-1-isoquinolinyl)oxy)-N-((1R,2S)-1-((cyclopropylsulfonyl)carbamoyl)-2-vinylcyclopropyl)-L-prolinamide], the EC50 in test [1] (setting [3]) fell in the range of 3 to 100 nM. Moreover, the IC50 in test [2] (activity range class) fell in the range of 0.6 to 20 nM.
Consider `C=C[C@@H]1C[C@]1(NC(=O)[C@@H]1C[C@@H](Oc2nccc3cc(OC)ccc23)CN1C(=O)[C@@H](Nc1cc(C)cc(C)n1)C(C)C)C(=O)NS(=O)(=O)C1CC1` [Compound 1A, N-(4,6-dimethyl-2-pyridinyl)-L-valyl-(4R)—N-((1R,2S)-1-((cyclopropylsulfonyl)carbamoyl)-2-vinylcyclopropyl)-4-((6-methoxy-1-isoquinolinyl)oxy)-L-prolinamide], for which the EC50 in test [1] (setting [3]) fell in the range of 3 to 100 nM. The 50% inhibitory concentration (IC50) in test [2] (activity range class) was in the range of 0.6 to 20 nM.
As to `C=CC1CC1(NC(=O)C1CC(Oc2ncc(OC)c3ccc(Cl)cc23)CN1C(=O)C(Nc1cccc(F)c1)C(C)(C)C)C(=O)NS(=O)(=O)C1CC1` (centres unmarked) [Compound 200B], the EC50 in test [1] (setting [4]) came out at 195 nM. For the same compound, the half-inhibitory concentration (IC50) in test [2] (numeric values, unit inferred) amounted to 160 nM.
For the compound `C=C[C@@H]1C[C@]1(NC(=O)[C@@H]1C[C@@H](Oc2ncc(OC)c3ccc(Cl)cc23)CN1C(=O)C(Nc1ccc(OC)nc1)C(C)(C)C)C(=O)NS(=O)(=O)C1CC1` (single isomer, unassigned) [408 first isomer], in test [1] (setting [5]), the half-maximal effective concentration (EC50) is 3 to 100 nM. Also, in test [2] (activity range class), the half-maximal inhibitory concentration (IC50) lay within 0.6 to 20 nM.
Consider `C=C[C@@H]1C[C@]1(NC(=O)[C@@H]1C[C@@H](Oc2ncc(OC)c3ccc(Cl)cc23)CN1C(=O)[C@@H](Nc1cccc(C(=O)N(C)C)c1)C(C)(C)C)C(=O)NS(=O)(=O)C1CC1` [218 first isomer, N-(3-(dimethylcarbamoyl)phenyl)-3-methyl-L-valyl-(4R)-4-((7-chloro-4-methoxy-1-isoquinolinyl)oxy)-N-((1R,2S)-1-((cyclopropylsulfonyl)carbamoyl)-2-vinylcyclopropyl)-L-prolinamide], for which the EC50 in test [1] (setting [3]) lay within 3 to 100 nM. Besides, the half-maximal inhibitory concentration (IC50) in test [2] (activity range class) was 0.6 to 20 nM.
For the compound `C=C[C@@H]1C[C@]1(NC(=O)[C@@H]1C[C@@H](Oc2nccc3cc(OC)ccc23)CN1C(=O)[C@@H](Nc1nc(C)cc(C)n1)C(C)C)C(=O)NS(=O)(=O)C1CC1` [6 second isomer, N-(4,6-dimethyl-2-pyrimidinyl)-L-valyl-(4R)—N-((1R,2S)-1-((cyclopropylsulfonyl)carbamoyl)-2-vinylcyclopropyl)-4-((6-methoxy-1-isoquinolinyl)oxy)-L-prolinamide], the concentration giving a half-maximal response (EC50) in test [1] (setting [3]) fell in the range of 100 to 1000 nM. The IC50 in test [2] (activity range class) fell in the range of 0.6 to 20 nM.
For the compound `C=C[C@@H]1C[C@]1(NC(=O)[C@@H]1C[C@@H](Oc2ncc(OC)c3ccc(Cl)cc23)CN1C(=O)C(Nc1cc(C)cc(C)n1)C(C)(C)C)C(=O)NS(=O)(=O)C1CC1` (single isomer, unassigned) [22 first isomer], the concentration for a half-maximal effect (EC50) in test [1] (setting [5]) is 3 to 100 nM. Also, the concentration for half-maximal inhibition (IC50) in test [2] (activity range class) lay within 0.6 to 20 nM.
Turning to `C=C[C@@H]1C[C@]1(NC(=O)[C@@H]1C[C@@H](Oc2ncc(OC)c3ccc(Cl)cc23)CN1C(=O)[C@H](Nc1ccc(F)c(F)c1)C(C)(C)C)C(=O)NS(=O)(=O)C1CC1` [220 second isomer, N-(3,4-difluorophenyl)-3-methyl-D-valyl-(4R)-4-((7-chloro-4-methoxy-1-isoquinolinyl)oxy)-N-((1R,2S)-1-((cyclopropylsulfonyl)carbamoyl)-2-vinylcyclopropyl)-L-prolinamide], in test [1] (setting [3]), the EC50 lay in the range of 100 to 1000 nM. Further, the IC50 in test [2] (activity range class) was more than 200 nM.
With `C=C[C@@H]1C[C@]1(NC(=O)[C@@H]1C[C@@H](Oc2ncc(OC)c3ccc(Cl)cc23)CN1C(=O)C(Nc1cc(C)nc(C)c1)C(C)(C)C)C(=O)NS(=O)(=O)C1CC1` (single isomer, unassigned) [Compound 29A], in test [1] (setting [3]), the EC50 lay within 100 to 1000 nM. Moreover, in test [2] (activity range class), the IC50 lay within 0.6 to 20 nM.
Turning to `C=C[C@@H]1C[C@]1(NC(=O)[C@@H]1C[C@@H](Oc2nccc3cc(OC)ccc23)CN1C(=O)[C@@H](Nc1cc(C)cc(C)n1)C(C)(C)C)C(=O)NS(=O)(=O)C1CC1` [14 first isomer, N-(4,6-dimethyl-2-pyridinyl)-3-methyl-L-valyl-(4R)—N-((1R,2S)-1-((cyclopropylsulfonyl)carbamoyl)-2-vinylcyclopropyl)-4-((6-methoxy-1-isoquinolinyl)oxy)-L-prolinamide], the EC50 in test [1] (setting [3]) is 3 to 100 nM. Further, in test [2] (activity range class), the IC50 lay in the range of 0.6 to 20 nM.
Consider `C=C[C@@H]1C[C@]1(NC(=O)[C@@H]1C[C@@H](Oc2ncc(OC)c3ccc(Cl)cc23)CN1C(=O)[C@H](Nc1cccc(S(N)(=O)=O)c1)C(C)(C)C)C(=O)NS(=O)(=O)C1CC1` [207 second isomer, 3-methyl-N-(3-sulfamoylphenyl)-D-valyl-(4R)-4-((7-chloro-4-methoxy-1-isoquinolinyl)oxy)-N-((1R,2S)-1-((cyclopropylsulfonyl)carbamoyl)-2-vinylcyclopropyl)-L-prolinamide], for which, in test [1] (setting [3]), the EC50 is more than 1000 nM. Moreover, the half-maximal inhibitory concentration (IC50) in test [2] (activity range class) is more than 200 nM.
Consider `C=C[C@@H]1C[C@]1(NC(=O)[C@@H]1C[C@@H](Oc2ncc(OC)c3ccc(Cl)cc23)CN1C(=O)[C@@H](Nc1cncc(Cl)c1)C(C)(C)C)C(=O)NS(=O)(=O)C1CC1` [Compound 33, N-(5-chloro-3-pyridinyl)-3-methylvalyl-(4R)-4-((7-chloro-4-methoxy-1-isoquinolinyl)oxy)-N-((1R,2S)-1-((cyclopropylsulfonyl)carbamoyl)-2-vinylcyclopropyl)-L-prolinamide], for which the EC50 in test [1] (setting [4]) turned out to be 8.19 nM. Moreover, the IC50 in test [2] (numeric values, unit inferred) was 2 nM.

As usually defined, the EC50 is the midpoint of the concentration-response curve. A word on the IC50: it is the point on the concentration scale where inhibition reaches its midpoint.

The record behind these values is patent US7772180B2, “Hepatitis C virus inhibitors” (Bristol-Myers Squibb Company, priority 2006, dated 2010).
